According to patent EP3156398A1, “AGONISTS OF THE CHEMOKINE RECEPTOR CXCR3” (Friedrich-Alexander-Universität Erlangen-Nürnberg, priority 2015, dated 2017):
Several values for one entry are separate records, joined by “and”; a condition that tells them apart may be missing. Identical values can stand only once. Like-named read-outs stand apart in the source and are kept apart here.

What was measured:
[1] = target: T1, CXCR3 (Homo sapiens, UniProt P49682); experiment: [35S]GTPγS incorporation assay; format: biochemical; details: for CXCR3 Efficacy (%) ± SEM / Emax: % of CXCL11 mediated effect; for CXCR3 Efficacy (%) ± SEM / Emax / CXCR3 pEC50 ± SEM / EC50: membrane preparations of HEK293T stably expressing CXCR3; for Emax: read-out: CXCR3 Efficacy (%) ± SEM; for CXCR3 pEC50 ± SEM: mean of three experiments in triplicate; for EC50: read-out: EC50 / potency in [35S]GTPγS incorporation
T1 construct: expressed in transfected cells; host or cells: HEK293 / HEK293T cells, stably transfected; membrane preparations
T1 sequence (P49682 1-368): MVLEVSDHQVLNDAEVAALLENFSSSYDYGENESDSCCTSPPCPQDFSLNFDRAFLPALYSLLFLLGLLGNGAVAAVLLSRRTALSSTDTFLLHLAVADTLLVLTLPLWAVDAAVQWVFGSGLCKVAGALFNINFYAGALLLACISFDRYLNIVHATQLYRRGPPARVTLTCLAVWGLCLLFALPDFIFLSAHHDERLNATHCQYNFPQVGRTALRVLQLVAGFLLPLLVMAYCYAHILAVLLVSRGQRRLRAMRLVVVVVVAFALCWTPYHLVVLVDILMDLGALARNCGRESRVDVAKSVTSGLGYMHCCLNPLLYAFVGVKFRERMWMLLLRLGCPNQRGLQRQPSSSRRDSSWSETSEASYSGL
Method: Membrane preparation for allosteric radioligand RAMX3 displacement and [^35S]GTPγS incorporation assays: The human embryonic kidney (HEK) cells stably expressing the human CXCR3 receptor were cultured in 150-mm cell culture plates in DMEM/F-12 supplemented with 10% fetal bovine serum (FBS), 2 mM L-glutamine, 1% penicillin-streptomycin, 300 µgmL^-1 Zeocin and incubated at 37 °C in a humid atmosphere with 5% CO2. At 100% confluency cells were washed with PBS twice, treated with Tris EDTA buffer (10 mM Tris, 0.5 mM EDTA, 5 mM KCl, 140 mM NaCl, pH 7.4), and harvested using a cell scraper. Cells were pelleted at 1100×g for 8 min at 4 °C, resuspended in Tris-EDTA-MgCl2 buffer (50mM Tris, 5 mM EDTA, 1.5 mM CaCl2, 5 mM MgCl2, 5 mM KCl, 120 mM NaCl, pH 7.4) and followed by lysis with an Ultra-Turrax. After centrifugation at 50,000•g, at 4°C for 18 min the membranes were resuspended in the binding buffer (50 mM Tris, 1 mM EDTA, 5 mM MgCl2 and subsequently homogenized with a glass-Teflon homogenizer (20 strokes). The homogenized membranes were shock-frozen in liquid nitrogen and stored at -80°C. The protein concentration was determined with the Lowry method with bovine serum albumin used as a standard.^35
[^35S]GTPγS incorporation assay: The [^35S]GTPγS incorporation assay was performed on membrane preparations of stably transfected HEK293 cells that expressed the CXCR3 receptor. The assay was carried out in 96-well plates at the final volume of 200 µL. The incubation buffer contained 20 mM HEPES, 10 mM MgCl2•6H20,100 mM NaCl and 100 mg/L saponin (pH 7.4). Membranes (30 µgmL^-1 of membrane protein), various concentrations of test compound and CXCL11, and 1 µM GDP were preincubated in the absence of [^35S]GTPγS for 30 min at 37 °C. After the addition of 0.10 nM [^35S]GTPγS membranes were incubated for additional 30 min at 37 °C. Incubation was terminated by filtration through Whatman GF/B filters soaked with ice cold PBS. The filter-bound radioactivity was measured as described above. Three to four experiments per compound were performed with each concentration in triplicate.
The activation of G proteins was explored in terms of CXCR3 mediated [^35S]GTPγS incorporation. In the [^35S]GTPγS incorporation assay the membrane preparations of HEK293T cells stably expressing CXCR3 were used. The activation of G proteins was monitored as the incorporation of [^35S]GTPγS and thus increase in the incorporated radioactivity. The potency and efficacy of the novel compounds was first compared to the reference compound 46/VUF10661. […] Table 1. The ability of the 46/VUF10661 based positive allosteric modulators to activate CXCR3 as measured in the [35S]GTPγS incorporation assay.[a]

[2] = target: T2, CXCR3-PK1 (Homo sapiens, UniProt P49682); experiment: β-arrestin 2 recruitment assay (PathHunter, DiscoveRx), CXCR3-PK1 construct; format: cell-based; details: for CXCR3-PK1 pEC50 ± SEM: HEK293-T cells, PathHunter, two to three experiments in triplicate
T2 construct: expressed in transfected cells; host or cells: HEK293 cells stably expressing beta-gal enzyme acceptor (PathHunter, DiscoveRx), transiently transfected
T2 sequence (P49682 1-368): T1 sequence (P49682 1-368)
Method: (§1) β-arrestin 2 recruitment assay: The measurement of β-arrestin recruitment was performed utilizing the PathHunter assay purchased from DiscoveRx (DiscoveRx, Birmingham, U.K.) according to the manufacturer's protocol. HEK293 cells stably expressing β-gal enzyme acceptor were transiently transfected with the ProLink (PK1) tagged wildtype CXCR3 receptor using the TransIT-293 transfection reagent from Mirus (purchased from MoBiTec, Goettingen, Germany). The assay was carried out in 384-well plates containing 2000 cells in 20 µL. After incubation at 37°C (5% CO2, 95% relative humidity) overnight, various concentrations of test compounds or CXCL11 (prepared in PBS, pH 7.4, containing 0.20% BSA) were added and the incubation continued for 4 h. Detection mix was then added and incubated for further 60 min at room temperature. Chemiluminescence was determined with a microplate reader Clariostar (BMG labtech, Ortenberg, Germany).
(§2) The ability of the novel ligands according to the present invention to induce CXCR3-mediated β-arrestin 2 recruitment was investigated in the assay system PathHunter (DiscoveRx), which detects the recruitment of β-amestin 2 to the activated receptor using β-galactosidase (β-gal) enzyme fragment complementation. The inventors used two different ProLink tags, ProLink1 (PK1) and ProLink2 (PK2), of which PK2 has higher affinity for the enzyme acceptor to detect weak protein-protein interactions. The CXCR3-PK2 construct is readily able to detect the differences in the propensity of CXCL11 and CXCL10 to induce β-arrestin 2 recruitment at CXCR3. […] Table 3. Ability of the 46/VUF10661 based positive allosteric modulators to activate the CXCR3 as measured in the β-arrestin 2 recruitment assay (PathHunter, DiscoveRx).[a]

[3] = target: T3, CXCR3-PK2 (Homo sapiens, UniProt P49682); experiment: β-arrestin 2 recruitment assay (PathHunter, DiscoveRx), CXCR3-PK2 construct; format: cell-based; details: for CXCR3-PK2 pEC50 ± SEM: HEK293-T cells, PathHunter
T3 construct: expressed in transfected cells
T3 sequence (P49682 1-368): T1 sequence (P49682 1-368)
Method: as §1, §2
To investigate the efficacy of identified partial agonists in the assay format, the inventors used the CXCR3-PK2 construct, which is characterized by higher sensitivity to detect β-arrestin 2 recruitment. The compounds which appeared as weak partial agonists under CXCR3-PK1 conditions appeared as strong partial agonists under CXCR3-PK2 conditions with the efficacy increased up to 80% (Table 4). FAUC1036 reached the efficacy of 66%. […] Table 4. Ability of the compound 5 based positive allosteric modulators to activate the CXCR3 as measured in the β-arrestin 2 recruitment assay (PathHunter, DiscoveRx).[a]

[4] = % of CXCL11 mediated effect, CXCR3-PK1, read-out: CXCR3-PK1 efficacy (%) (converted)
[5] = % of CXCL11 mediated effect, CXCR3-PK2, read-out: CXCR3-PK2 efficacy (%) (converted)

Row | CXCR3 Efficacy (%) ± SEM [1] | Emax [1] | CXCR3 pEC50 ± SEM [1] | EC50 [1] | CXCR3-PK1 efficacy (%) ([2]; % of CXCL11 mediated effect, CXCR3-PK1) | Emax [2, 4] | CXCR3-PK1 pEC50 ± SEM ([2]; CXCR3-PK1) | Emax [3, 5] | CXCR3-PK2 pEC50 ± SEM ([3]; CXCR3-PK2) | CXCR3 pEC50 ± SEM ([1]; listed as 46/VUF10661, 2,2,2-trifluoroacetate) | CXCR3-PK1 pEC50 ± SEM ([2]; CXCR3-PK1, listed as 46/VUF10661, 2,2,2-trifluoroacetate) | higher efficacy than CXCL11 ([2]; β-arrestin 2 recruitment, relative to CXCL11) | SMILES | Emax ([2]; read-out: CXCR3-PK1 efficacy (%)) | Emax ([3]; read-out: CXCR3-PK2 efficacy (%)) | CXCR3 mediated G protein activation (result in words) ([1]; [35S]GTPγS incorporation) | β-arrestin 2 recruitment, intrinsic agonism (result in words) [2]
1 | – | 30 ± 17% | 5.07±0.50 | – | – | 19% | 7.21±0.17 | 29% | 6.71±0.30 | – | – | – | CC(C)(C)OC(=O)N[C@@H](CCCCNC(=O)[C@@H]1Cc2ccccc2CN1C(=O)CCc1ccccc1)C(=O)NCC(c1ccccc1)c1ccccc1 [Compound 23, Tert-butyl((S)-1-((2,2-diphenylethyl)amino)-1-oxo-6-((S)-2-(3-phenylpropanoyl)-1,2,3,4-tetrahydroisoquinoline-3-carboxamido)hexan-2-yl)carbamate] | – | – | – | –
2 | No effect | – | No effect | – | – | 17% | 6.80±0.21 | 27% | 6.51±0.34 | – | – | – | N[C@@H](CCCCNC(=O)[C@@H]1Cc2ccccc2CN1C(=O)CCC(=O)c1ccccc1)C(=O)NCC(c1ccccc1)c1ccccc1.O=C(O)C(F)(F)F [Compound 25, (S)-1-((2,2-diphenylethyl)amino)-1-oxo-6-((S)-2-(4-oxo-4-phenylbutanoyl)-1,2,3,4-tetrahydroisoquinoline-3-carboxamido)hexan-2-aminium 2,2,2-trifluoroacetate] | – | – | failed to induce CXCR3 mediated G protein activation | –
3 | No effect | – | No effect | – | – | 20% | 6.73±0.22 | 91% | 6.90±0.21 | – | – | – | N[C@@H](CCCCNC(=O)[C@@H]1Cc2ccccc2CN1C(=O)CCCC(=O)c1ccccc1)C(=O)NCC(c1ccccc1)c1ccccc1.O=C(O)C(F)(F)F [Compound 26, (S)-1-((2,2-diphenylethyl)amino)-1-oxo-6-((S)-2-(5-oxo-5-phenylpentanoyl)-1,2,3,4-tetrahydroisoquinoline-3-carboxamido)hexan-2-aminium 2,2,2-trifluoroacetate] | – | – | – | –
4 | – | 109 ± 3% | – | 600 nM | – | 139% | – | – | – | 6.2 ± 0.1 and 6.20±0.06 | 5.89 ± 0.07 | ~40% | NCCCC[C@H](NC(=O)[C@@H]1Cc2ccccc2CN1C(=O)CCC(=O)c1ccccc1)C(=O)NCC(c1ccccc1)c1ccccc1.O=C(O)C(F)(F)F [Compound 46, (S)-6-((2,2-diphenylethyl)amino)-6-oxo-5-((S)-2-(4-oxo-4-phenylbutanoyl)-1,2,3,4-tetrahydroisoquinoline-3-carboxamido)hexan-1-aminium 2,2,2-trifluoroacetate, reference compound] | – | – | – | –

The remaining lines, values behind:

Row | SMILES | CXCR3 Efficacy (%) ± SEM [1] | Emax [1] | CXCR3 pEC50 ± SEM [1] | EC50 [1] | CXCR3-PK1 efficacy (%) ([2]; % of CXCL11 mediated effect, CXCR3-PK1) | Emax [2, 4] | CXCR3-PK1 pEC50 ± SEM ([2]; CXCR3-PK1) | Emax [3, 5] | CXCR3-PK2 pEC50 ± SEM ([3]; CXCR3-PK2) | CXCR3 pEC50 ± SEM ([1]; listed as 46/VUF10661, 2,2,2-trifluoroacetate) | CXCR3-PK1 pEC50 ± SEM ([2]; CXCR3-PK1, listed as 46/VUF10661, 2,2,2-trifluoroacetate) | higher efficacy than CXCL11 ([2]; β-arrestin 2 recruitment, relative to CXCL11) | Emax ([2]; read-out: CXCR3-PK1 efficacy (%)) | Emax ([3]; read-out: CXCR3-PK2 efficacy (%)) | CXCR3 mediated G protein activation (result in words) ([1]; [35S]GTPγS incorporation) | β-arrestin 2 recruitment, intrinsic agonism (result in words) [2]
5 | CC(C)(C)OC(=O)N[C@@H](CCCCNC(=O)[C@@H]1Cc2ccccc2CN1)C(=O)NCC(c1ccccc1)c1ccccc1 [Compound 5, Tert-butyl ((S)-1-((2,2-diphenylethyl)amino)-1-oxo-6-((S)-1,2,3,4-tetrahydroisoquinoline-3-carboxamido)hexan-2-yl)carbamate] | 34±8% | 34% | 5.7 ± 0.34 and 5.66±0.34 | 2200 nM | 31±2% | 31% | 6.50±0.17 | 79% | 6.71±0.33 | – | – | – | – | – | – | –
6 | CC(=O)CCC(=O)N1Cc2ccccc2C[C@H]1C(=O)NCCCC[C@H](NC(=O)OC(C)(C)C)C(=O)NCC(c1ccccc1)c1ccccc1 [Compound 12, Tert-butyl((S)-1-((2,2-diphenylethyl)amino)-1-oxo-6-((S)-2-(4-oxopentanoyl)-1,2,3,4-tetrahydroisoquinoline-3-carboxamido)hexan-2-yl)carbamate] | No effect | – | No effect | – | – | 34% | 6.78±0.17 | 63% | 6.64±0.33 | – | – | – | – | – | – | –
7 | CC(C)(C)OC(=O)N[C@@H](CCCCNC(=O)[C@@H]1Cc2ccccc2CN1C(=O)CCCC(=O)c1ccccc1)C(=O)NCC(c1ccccc1)c1ccccc1 [Compound 24, Tert-butyl ((S)-1-((2,2-diphenylelhyl)amino)-1-oxo-6-((S)-2-(5-oxo-5-phenylpentanoyl)-1,2,3,4-tetrahydroisoquinoline-3-carboxamido)hexan-2-yl)carbamate] | No efffect | – | No effect | – | – | – | 6.84±1.7 | – | 6.78±0.35 | – | – | – | 20% | 56% | – | –
8 | CC(C)(C)OC(=O)N[C@@H](CCCCNC(=O)[C@@H]1Cc2ccccc2CN1C(=O)CCC(=O)O)C(=O)NCC(c1ccccc1)c1ccccc1 [Compound 27, 4-((S)-3-(((S)-5-((tert-butoxycarbonyl)amino)-6-((2,2-diphenylethyl)amino)-6-oxohexyl)carbamoyl)-3,4-dihydroisoquinolin-2(1H)-yl)-4-oxobutanoic acid] | No effect | – | No effect | – | – | – | No effect | – | No effect | – | – | – | – | – | – | no agonistic effect
